{"source": "patent US20250250559A1", "about": "“METHOD TO ANALYZE AND OPTIMIZE GENE EDITING MODULES AND DELIVERY APPROACHES” (Hoffmann-La Roche Inc., priority 2016, published 2025)", "assay_type_in_all_cases": "cell-based, human", "key": {"DPH1 gene [1]": {"system": "DPH1 gene", "assay": "HRM-PCR on single cells followed by DT sensitivity assay", "settings": "FIG. 5B", "protocol": "Cells which have only one allele of dph1 or dph2 modified are not toxin resistant. To identify and quantify those events, high resolution melting (HRM) PCR was applied in a similar manner as described by Stahl et al (Stahl, et al. 2015): 24 h after transfection, single cells were deposited in 96-well plates by FACS (FACSAria, BD biosciences) and grown until confluency. Cells were washed with PBS and lysed by addition of 40 μL cell lysis buffer (Roche) per well. After 15 mins incubation at RT on a plate shaker (Titramax 1000, Heidolph) at 750 rpm, the cell lysate was 1:5 diluted with PCR grade H2O. 5 μL cell lysate was mixed with a High resolution melting (HRM) master mix (Roche) and with primer spanning the gRNA target sequence. PCR and HRM were performed in an LC480 II (Roche) according the manufacturer's protocol. Clones with edited target genes were identified by their altered melting curve compared to MCF7-WT cells.\nTherefore, such clones were expanded (without toxin or Puromycin selection) and subjected to cell viability analyses to discriminate between heterozygous (toxin sensitive) and homozygous (resistant) knockout cells. […] Metabolic activity of surviving cells was assessed by a CellTiterGlo® Luminescent Viability Assay (Promega) performed according to the manufacturer's specifications."}, "DPH1 gene [2]": {"system": "DPH1 gene", "assay": "DT resistant colony count after DPH1 gene editing (homozygous gene inactivation)", "settings": "for # of DT resistant colonies (20,000 seeded cells) / # of DT resistant colonies (20,000 seeded cells) (unheaded second sub-column: mean): DPH1 (gRNA length), TF eff. = 31%; for # of DT resistant colonies (20,000 seeded cells): MCF7, individual samples A-D; for # of DT resistant colonies (mean of the samples): DPH1 assay (integr. vs. k.o.), 20,000 seeded cells; for # of DT resistant colonies (mean of the samples) / # of DT resistant colonies: TF eff. = 38%; for # of DT resistant colonies: DPH1 assay (integr. vs. k.o.), MCF7, 20,000 seeded cells, individual samples; for generation of DTr colonies: MCF7", "protocol": "(§1) MCF7 cells (Brooks, et al. 1973) were originally obtained from ATCC (subsequently propagated in an in-house cell bank) and maintained in RPMI […] medium supplemented with 10% FCS, 2 mM L-Glutamine and penicillin/streptomycin at 37° C. and 85% humidity. For transfection of plasmids harboring gene-editing modules, 3,000,000 cells were seeded in a 10 cm diameter culture dish and cultivated at 37° C. and humidified 5% CO2. 24 h after seeding, cells were transfected with 20 μg total DNA using JetPEI (Polyplus) according to the manufacturer's protocol but with an N/P ratio of 6:1. Transfection efficiency was determined after 24 h by flow cytometry (FACS Calibur, BD biosciences) of cells that were transfected with a modified eGFP expression plasmid (Zhang, et al. 1996).\n(§2) Plasmids encoding CRISPR/Cas9 gene-editing entities (i.e. knock-out and integration systems) against Dph1 (gRNA target sequence: […] (SEQ ID NO: 01) derived from RefSeq: NM_001383) and Dph2 (gRNA target sequence: […] (SEQ ID NO: 02) derived from RefSeq: NM_001039589, NM_001384), and scrambled control (gRNA sequence: […] (SEQ ID NO: 03)) were obtained from OriGene. This system comprises one plasmid expressing a ˜100 nt gRNA under control of a U6 promoter as well as Cas9 nuclease under control of a CMV promoter and a Donor plasmid with a promoter-less GFP/PM expression cassette flanked by homologous arms to the target gene (Dph1 or Dph2). Additional Dph1 gRNA sequence variants of different sizes (OriGene) […]\n(§3) MCF7 cells which have all chromosomal copies of DPH1 or DPH2 inactivated are resistant to diphtheria toxin (Stahl, et al. 2015). Thus, occurrence and frequency of toxin resistant cells/colonies upon CRISPR/Cas inflicted gene inactivation provides a measure for efficiency of inactivation of all gene copies. Therefore, MCF/cells were transfected as described in Example 1 with (i) a GFP expression plasmid as transfection control, (ii) the CRISPR/Cas9 Dph1 or Dph2 knock-out/integration system and (iii) knock-out/integration entities containing a scrambled gRNA to determine Cas9 independent integration frequencies. After determination of transfection efficiency, cells were seeded in 6-well plates. For quantification of homozygous knock-out events by DT 20000 cells were seeded and for quantification of integration events by PM or both events 40000 cells were seeded. RPMI medium was exchanged by RPMI medium containing DT or PM or both toxins 3 days after cell seeding. Exchange of medium was repeated every 2-3 days until all dead cells were removed from the plates and actively growing colonies could be detected via microscopic inspection. Thereafter (between day 12 and day 14 after start of toxin exposure), cells were washed 3 times with PBS and subsequently stained with ice cold methylene blue (0.2% in 50% EtOH). Methylene blue solution was subsequently removed and the plates were carefully washed under running water. Finally, cell colonies were counted under the microscope with a 5 mm grid foil.\nMCF7 cells which have all chromosomal copies of DPH1 inactivated are DT resistant. Thus, occurrence and frequency of DTr colonies upon ZFN inflicted gene inactivation and/or cassette integration provides a measure for efficacy of inactivation of all gene copies. The ZFN recognition sequence ([…], cleavage site, SEQ ID NO: 10) are derived from NM_001383.3 (DPH1-wt) and were obtained from Sigma Aldrich. A PAC integration cassette for this position was obtained from OriGene. MCF7 cells were transfected as described above with (i) a GFP expression plasmid, (ii) the plasmid encoding DPH1-targeting ZFN and (iii) the DPH1-targeting PAC-integration cassette. After determination of transfection efficiency, cells were seeded in 6-well plates. For quantification of homozygous knock-out events (DTr) 20,000 cells were seeded, 40,000 cells for quantification of integration events (PMr) or double resistances. […]"}, "DPH2 gene [3]": {"system": "DPH2 gene", "assay": "PM resistant colony count after DPH2 gene editing", "settings": "DPH2 assay (integr. vs. k.o.); for # of PM resistant colonies (40,000 seeded cells): MCF7, individual samples A-D", "protocol": "as §1, §2, §3\nCRISPR/Cas module for targeted integration contains a puromycin (PM) resistance gene expression cassette without promoter to avoid transient expression. Thus, detection of integration of recombinant sequences into the genome was detected by determining sensitivity of cells towards PM. A concentration of […] PM (which quantitatively eliminates wildtype MCF7 cells) was applied to select MCF7 cells with stably integrated expression cassettes. PM-resistant colonies selected with the same procedure as described above for the DT selection and visualized and quantified (between 12 and 14 days after start of selection) in the same manner as described above for toxin resistant colonies. Number of PM resistant colonies obtained with non-target guide sequences (scrambled gRNA, FIG. 1) reflect the nonspecific integration background. […]"}, "DPH2 gene [4]": {"system": "DPH2 gene", "assay": "DT resistant colony count after DPH2 gene editing", "settings": "DPH2 assay (integr. vs. k.o.)", "protocol": "as §1, §2, §3"}}, "note": "Several values for one entry are separate records, joined by “and”; a condition that tells them apart may be missing. Equal values may be shown once. Entries after “also recorded” stand apart in the source; their conditions may differ."}
{"substance": "20 mer SpCas9 DPH1 gRNA: Plasmids encoding SpCas9 and Dph1 gRNA (target CAGGGCGGCCGAGACGGCCC, SEQ ID NO: 01) plus PAC donor plasmid, OriGene", "values": [{"measurement": "mono-allelic gene inactivation (toxin sensitive, HRM confirmed) versus inactivation of both alleles (DTr)", "setting": "DPH1 gene [1]", "result": "twice as frequent"}, {"measurement": "efficiency relative to ZFN-editing (gene inactivation and integration)", "setting": "DPH1 gene [2]", "result": "twice as efficient"}, {"measurement": "efficiency relative to engineered high fidelity CRISPR/Cas9", "setting": "DPH1 gene [2]", "result": 5, "unit": "fold"}, {"measurement": "# of DT resistant colonies (20,000 seeded cells)", "setting": "DPH1 gene [2]", "result": "417 and 406 and 409 and 404"}, {"measurement": "# of DT resistant colonies (20,000 seeded cells)", "setting": "DPH1 gene [2]; listed as 20 mer Dph1 CRISPR Cas9 gRNA", "result": "417 and 406 and 409 and 404"}, {"measurement": "# of DT resistant colonies (20,000 seeded cells) (unheaded second sub-column: mean)", "setting": "DPH1 gene [2]", "result": 409}, {"measurement": "# of DT resistant colonies (mean of the samples)", "setting": "DPH1 gene [2]", "result": 472}, {"measurement": "# of DT resistant colonies", "setting": "DPH1 gene [2]", "result": "364 and 545 and 543 and 435"}, {"measurement": "# of DT resistant colonies", "setting": "DPH1 gene [2]; listed as CRISPR Cas9 Dph1 gRNA", "result": "364 and 545 and 543 and 435"}, {"measurement": "DPH1 inactivation efficacy in dependence on gRNA length", "setting": "DPH1 gene [2]; DTr colonies", "result": "maximum DPH1 inactivation efficacy; also recorded: maximal DPH1 gene inactivation efficiency"}, {"measurement": "frequency of complete inactivation of the DPH1 gene (all alleles)", "setting": "DPH1 gene [2]; MCF7, FIG. 5A", "result": "~6 % of all transfected cells"}, {"measurement": "efficacy of inactivation of both DPH1 alleles (DTr) over integration of the PAC expression cassette (PMr)", "setting": "DPH1 gene [2]; MCF7, FIG. 6", "result": "30-50 fold"}, {"measurement": "frequency of complete inactivation of the DPH1 gene (all alleles)", "setting": "DPH1 gene [2]; MCF7, considering transfection efficiencies of 40%", "result": "2.5 % of all cells"}]}
{"substance": "20 mer SpCas9 scRNA: Scrambled control gRNA GCACTACCAGAGCTAACTCA (SEQ ID NO: 03) with SpCas9 and donor plasmid [reference compound]", "values": [{"measurement": "# of PM resistant colonies (40,000 seeded cells) (unheaded second sub-column: mean)", "setting": "DPH2 gene [3]; MCF7", "result": 0.5}, {"measurement": "# of PM resistant colonies (40,000 seeded cells)", "setting": "DPH2 gene [3]", "result": "2 and 0 (3×)"}, {"measurement": "# of PM resistant colonies (40,000 seeded cells)", "setting": "DPH2 gene [3]; listed as 20 mer scRNA", "result": "2 and 0 (3×)"}, {"measurement": "# of DT resistant colonies (40,000 seeded cells) (unheaded second sub-column: mean)", "setting": "DPH2 gene [4]; MCF7", "result": 0}, {"measurement": "# of DT resistant colonies (40,000 seeded cells)", "setting": "DPH2 gene [4]; MCF7, individual samples A-D", "result": 0}, {"measurement": "# of DT resistant colonies (20,000 seeded cells)", "setting": "DPH1 gene [2]", "result": 0}, {"measurement": "# of DT resistant colonies (20,000 seeded cells) (unheaded second sub-column: mean)", "setting": "DPH1 gene [2]", "result": 0}, {"measurement": "# of DT resistant colonies (mean of the samples)", "setting": "DPH1 gene [2]", "result": 0}, {"measurement": "# of DT resistant colonies", "setting": "DPH1 gene [2]", "result": 0}, {"measurement": "generation of DTr colonies", "setting": "DPH1 gene [2]", "result": "did not generate any DTr colony"}, {"measurement": "generation of DTr colonies", "setting": "DPH1 gene [2]; listed as scrambled guides", "result": "did not generate any DT-resistant colony"}]}
